These results are taken from publication PMC6514812, “[^18F]Fluoroethyltriazolyl Monocyclam Derivatives as Imaging Probes for the Chemokine Receptor CXCR4” (Molecules, 2019).

Usually IC50 stands for the concentration needed to halve the response being measured. Read a low IC50 as higher potency. In general, Kd refers to the constant that tells how readily two partners part at equilibrium. High values mean lower affinity, low ones higher affinity.

Like-named read-outs stand apart in the source and are kept apart here. Non-standard residues stand in square brackets, D forms with d. Residues, ends and D or L forms follow the SMILES beside them. Groups on a side chain read outwards from the residue. *: point of attachment. DOTA = O=C(O)CN1CCN(CC(=O)O)CCN(CC(=O)*)CCN(CC(=O)O)CC1; 2Nal = N[C@@H](Cc1ccc2ccccc2c1)C(=O)O; dNMeOrn = CN[C@H](CCCN)C(=O)O; 4Amb = NCc1ccc(C(=O)O)cc1

Series [1] can be described thus: Biodistribution in mice bearing bilateral PC3-WT/PC3-CXCR4 xenograft tumors. Type of series: in vivo, BALB/c mice. Conditions: male, BALB/c athymic nude, mouse, iv, total radioactivity; for tissue to tissue ratio at 2 h: 2 h p.i. Here is the method:
(§1) All animal studies were approved by the Institutional Animal Care and Use Committee of Weill Cornell Medicine (Protocol Number: 2015-0066) and were undertaken in accordance with the guidelines set forth by the USPHS Policy on Humane Care and Use of Laboratory Animals. Animals were housed under standard conditions in approved facilities with 12 h light/dark cycles. Food and water was provided ad libitum throughout the course of the studies. Hairless 6-to-8-week old male BALB/c inbred athymic nude mice (Jackson Laboratory, Bar Harbor, ME, USA) were inoculated bilaterally with 0.2 mL of a 1:1 mixture of 10^7 PC3-CXCR4 cells in PBS and Matrigel (Corning, Tewksbury, MA, USA) subcutaneously in the left shoulder and 0.2 mL of a 1:1 mixture of 10^7 PC3-WT cells in PBS and Matrigel subcutaneously in the right shoulder. Imaging and biodistribution studies were performed three weeks post-implantation, when tumors were approximately 100–300 mm^3.
(§2) For the biodistribution studies, tumor-bearing animals (n = 5/compound/time point) were injected intravenously with 50–100 μL of a 9% v/v EtOH/saline solution containing approximately 1.1 MBq of the radioligand. […] The mice were euthanized at 1 or 2 h p.i. and tissues including blood, heart, lungs, liver, small intestine, large intestine, stomach (with contents), spleen, pancreas, kidneys, muscle, bone, PC3-WT tumors, PC3-CXCR4 tumors, and tail were collected. All organs were weighed and placed in test tubes for counting in a Wizard^2 Gamma Counter (PerkinElmer, Waltham, MA, USA). For comparison, 1% injected activity standards were prepared and counted along with the tissue samples. The tails were counted to correct for any dose extravasation. Activity in each tissue was corrected for decay and for injected activity and expressed as percent injected dose per gram of tissue (%ID/g) ± standard error.

In series [2] the test system is PC3-CXCR4 xenograft tumors. Described as above. Type of series: in vivo, BALB/c mice. Conditions: 2 h p.i. How it is done: as §1, §2
Series [3] concerns the target T1, CXCR4 (Homo sapiens, UniProt P61073).
T1 construct: expressed in transfected cells; host or cells: PC3 (human prostate cancer) cells stably transduced with CXCR4
The series is described as follows: Competition binding assay vs [^68Ga]Pentixafor in PC3-CXCR4 cells. Conditions: for Hill Slope, Competitive Binding Experiment: vs [^68Ga]Pentixafor, value ± SD. How it is done:
PC3-CXCR4 cells were plated in 12-well plates at a density of 500,000 cells per well and incubated for 48 h at 37 °C/5% CO2. Prior to the binding assay the cells were incubated in fresh media and 370–555 kBq of [^68Ga]Pentixafor or [^18F]RPS-544 was added to each well. The corresponding concentration of [^68Ga]Pentixafor in each well was 100 nM, and the concentration of [^18F]RPS-544 was approximately 5 pM. Then non-radioactive ligands were added to give a final ligand concentration in the range 0.001–10,000 nM. A total of eight concentrations were studied, and each concentration was tested in triplicate. The cells were incubated for 60 min at 37 °C/5% CO2. The media was removed under suction, the cells were washed with cold PBS 1X and detached and transferred to tubes for counting in 1 M NaOH. The cells were counted in a Wizard^2 Gamma Counter (PerkinElmer, Waltham, MA, USA). Non-specific binding was subtracted, and the IC50 values were determined by assuming a simple competitive binding interaction and fitting the data to a sigmoidal Hill plot in Origin 9.0 (OriginLab, Northampton, MA, USA). Potencies are expressed as IC50 ± standard deviation (Supplemental Data, Figure S7).

Series [4] concerns the target T1, CXCR4. The series is described as follows: Saturation binding assay in PC3-CXCR4 cells. Here is the method:
To determine the dissociation constants, saturation binding assays were performed in the PC3-CXCR4 cells. The cells were plated as described above, and approximately 5 nM of the radioligand was added to each well. Then the corresponding non-radioactive ligand was added to give a final concentration in the range 0.001–10,000 nM. A total of eight concentrations were tested, and each concentration was tested in triplicate. The samples were washed and counted as described above. Non-specific binding was subtracted, and Kd values were determined by performing a nonlinear one site binding curve fit with equation y = (Bmax · x)/(Kd + x). Values are expressed as Kd ± standard deviation (Supplemental Data, Figure S8).

The next series deals with PC3-CXCR4 cells. Description: Cell-associated activity in PC3-CXCR4 cells. Conditions: 1 h. Type of series: cell-based, human. How it is done:
Maximum cell-associated activity was calculated by subtracting the cell uptake of the radioactive ligand at the highest non-radioactive ligand concentration of 10 µM (which we considered to be non-specific uptake/binding) from the cell uptake at the lowest non-radioactive ligand concentration of 10^−5 µM.

T1 sequence (P61073 whole entry): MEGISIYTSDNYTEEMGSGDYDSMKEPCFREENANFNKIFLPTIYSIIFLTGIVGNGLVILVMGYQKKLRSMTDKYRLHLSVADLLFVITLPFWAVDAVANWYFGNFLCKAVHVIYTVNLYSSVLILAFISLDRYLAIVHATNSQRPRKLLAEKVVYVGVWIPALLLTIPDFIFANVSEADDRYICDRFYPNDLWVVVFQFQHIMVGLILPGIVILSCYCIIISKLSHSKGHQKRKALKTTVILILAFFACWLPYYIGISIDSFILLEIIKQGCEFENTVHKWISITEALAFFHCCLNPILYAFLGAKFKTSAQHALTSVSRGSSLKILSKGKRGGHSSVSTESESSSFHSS

As to `CN1C(=O)[C@@H](Cc2ccc(O)cc2)NC(=O)CNC(=O)[C@H](Cc2ccc3ccccc3c2)NC(=O)[C@H](CCCNC(=N)N)NC(=O)[C@H]1CCCNC(=O)c1ccc(CNC(=O)CN2CCN(CC(=O)O)CCN(CC(=O)O)CCN(CC(=O)O)CC2)cc1` (68Ga complex, metal not drawn) [Pentixafor, reference compound] (cyclo([dY][dNMeOrn]([4Amb-DOTA])R[2Nal]G)), the tissue to tissue ratio at 1 h in series [1] (PC3-CXCR4 tumor and PC3-WT tumor, 1 h p.i., read-out: PC3-CXCR4 Tumor-to-Tissue Ratio PC3-WT) came to 2 ± 0.2; in series [1] (PC3-CXCR4 tumor and blood, 1 h p.i., read-out: PC3-CXCR4 Tumor-to-Tissue Ratio Blood) it was 11.4 ± 0.2; in series [1] (PC3-CXCR4 tumor and bone, 1 h p.i., read-out: PC3-CXCR4 Tumor-to-Tissue Ratio Bone), 28.7 ± 0.2; in series [1] (PC3-CXCR4 tumor and kidneys, 1 h p.i., read-out: PC3-CXCR4 Tumor-to-Tissue Ratio Kidneys), 4 ± 0.2; in series [1] (PC3-CXCR4 tumor and liver, 1 h p.i., read-out: PC3-CXCR4 Tumor-to-Tissue Ratio Liver) it was 10.8 ± 0.2; in series [1] (PC3-CXCR4 tumor and lungs, 1 h p.i., read-out: PC3-CXCR4 Tumor-to-Tissue Ratio Lungs), 11.8 ± 0.2. Also, the tissue to tissue ratio at 1 h in series [1] (PC3-CXCR4 tumor and muscle, 1 h p.i., read-out: PC3-CXCR4 Tumor-to-Tissue Ratio Muscle) came out at 56.1 ± 0.2. For the same compound, the tissue to tissue ratio at 2 h in series [1] (PC3-CXCR4 tumor and PC3-WT tumor, read-out: PC3-CXCR4 Tumor-to-Tissue Ratio PC3-WT) turned out to be 2.8 ± 0.1; in series [1] (PC3-CXCR4 tumor and blood, read-out: PC3-CXCR4 Tumor-to-Tissue Ratio Blood) it was 31.1 ± 0.1; in series [1] (PC3-CXCR4 tumor and bone, read-out: PC3-CXCR4 Tumor-to-Tissue Ratio Bone), 47.2 ± 0.1; in series [1] (PC3-CXCR4 tumor and kidneys, read-out: PC3-CXCR4 Tumor-to-Tissue Ratio Kidneys) it was 5.3 ± 0.1; in series [1] (PC3-CXCR4 tumor and liver, read-out: PC3-CXCR4 Tumor-to-Tissue Ratio Liver), 10.8 ± 0.1; in series [1] (PC3-CXCR4 tumor and lungs, read-out: PC3-CXCR4 Tumor-to-Tissue Ratio Lungs), 17.1 ± 0.1. Besides, the tissue to tissue ratio at 2 h in series [1] (PC3-CXCR4 tumor and muscle, read-out: PC3-CXCR4 Tumor-to-Tissue Ratio Muscle) was 101.2 ± 0.1. In addition, the tissue uptake at 1 h in series [1] (PC3-CXCR4 tumor, 1 h p.i., read-out: Maximum PC3-CXCR4 tumor activity) is 14.6 ± 2.7 %ID/g. Further, the “PC3-CXCR4 Tumor-to-Tissue Ratio Blood” value in series [2] was found to be 32.1 ± 0.1. Besides, the “PC3-CXCR4 ratio to all normal tissue except kidneys” value in series [2] is reported as “greater than 10”.

In the case of `FCCn1cc(NCc2ccc(CN3CCCNCCNCCCNCC3)cc2)nn1` [RPS-546], on CXCR4 [3] (vs 100 nM [^68Ga]Pentixafor, PC3-CXCR4 cells, 60 min 37 °C), the IC50 is ~1500 nM. In addition, the “Hill Slope, Competitive Binding Experiment” value on CXCR4 [3] turned out to be 0.96 ± 0.10. The Kd at CXCR4 [4] (saturation binding, PC3-CXCR4 cells) is ~1700 nM. Further, at CXCR4 [4] (value ± SD), the “Hill Slope, Saturation Binding Experiment” value is 0.98 ± 0.19. The “Cell-Associated Activity” value with PC3-CXCR4 cells turned out to be 1.2 ± 0.1 %IA.

With `c1ccc(CNCc2ccc(CN3CCCNCCNCCCNCC3)cc2)nc1` [AMD-3465, reference compound], the “Hill Slope, Competitive Binding Experiment” value at CXCR4 [3] is given as 1.01 ± 0.30.
